Assays:
ΔF508-CFTR [1] = biological target: T1, ΔF508-CFTR (Homo sapiens, UniProt P13569, DEL508-508); assay: CFTR cell surface levels using HRP-tagged ΔF508-CFTR expressing CFBE cells, in the presence of a co-corrector; assay type: cell-based; details: HRP-tagged ΔF508-CFTR expressing CFBE cells, in the presence of 3 μM co-corrector; for EC50: read-out: EC50
T1 construct: host or cells: CFBE41o-, doxycycline-inducible
Method in brief: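 Cells were seeded with 0.5 μg/mL doxycycline and held 68 h at 37 °C. Test compounds plus 3 μM co-corrector (final 0.1% DMSO) were then added for 20 h at 33 °C. Washed cells received HRP substrate, and luminescence was normalized between DMSO and 3 μM co-corrector controls.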

ΔF508-CFTR [2] = biological target: T1, ΔF508-CFTR; assay: CFTR cell surface levels using HRP-tagged ΔF508-CFTR expressing CFBE cells, intrinsic corrector capacity; assay type: cell-based; details: HRP-tagged ΔF508-CFTR CFBE41o- cells, compounds alone (intrinsic corrector capacity), 20 hours at 33° C.; for % Activation: positive control 3 μM corrector; for EC50: read-out: EC50
Method in brief: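 Here the cells express ΔF508-CFTR with horseradish peroxidase inserted in extracellular loop 4, so only rescued channel at the surface gives luminescent signal. Compounds act on their own, 20 h at the reduced temperature of 33 °C; values are percent activity relative to DMSO and a 3 μM corrector.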

T1 sequence (P13569 with tags, fused parts or gaps DEL508-508): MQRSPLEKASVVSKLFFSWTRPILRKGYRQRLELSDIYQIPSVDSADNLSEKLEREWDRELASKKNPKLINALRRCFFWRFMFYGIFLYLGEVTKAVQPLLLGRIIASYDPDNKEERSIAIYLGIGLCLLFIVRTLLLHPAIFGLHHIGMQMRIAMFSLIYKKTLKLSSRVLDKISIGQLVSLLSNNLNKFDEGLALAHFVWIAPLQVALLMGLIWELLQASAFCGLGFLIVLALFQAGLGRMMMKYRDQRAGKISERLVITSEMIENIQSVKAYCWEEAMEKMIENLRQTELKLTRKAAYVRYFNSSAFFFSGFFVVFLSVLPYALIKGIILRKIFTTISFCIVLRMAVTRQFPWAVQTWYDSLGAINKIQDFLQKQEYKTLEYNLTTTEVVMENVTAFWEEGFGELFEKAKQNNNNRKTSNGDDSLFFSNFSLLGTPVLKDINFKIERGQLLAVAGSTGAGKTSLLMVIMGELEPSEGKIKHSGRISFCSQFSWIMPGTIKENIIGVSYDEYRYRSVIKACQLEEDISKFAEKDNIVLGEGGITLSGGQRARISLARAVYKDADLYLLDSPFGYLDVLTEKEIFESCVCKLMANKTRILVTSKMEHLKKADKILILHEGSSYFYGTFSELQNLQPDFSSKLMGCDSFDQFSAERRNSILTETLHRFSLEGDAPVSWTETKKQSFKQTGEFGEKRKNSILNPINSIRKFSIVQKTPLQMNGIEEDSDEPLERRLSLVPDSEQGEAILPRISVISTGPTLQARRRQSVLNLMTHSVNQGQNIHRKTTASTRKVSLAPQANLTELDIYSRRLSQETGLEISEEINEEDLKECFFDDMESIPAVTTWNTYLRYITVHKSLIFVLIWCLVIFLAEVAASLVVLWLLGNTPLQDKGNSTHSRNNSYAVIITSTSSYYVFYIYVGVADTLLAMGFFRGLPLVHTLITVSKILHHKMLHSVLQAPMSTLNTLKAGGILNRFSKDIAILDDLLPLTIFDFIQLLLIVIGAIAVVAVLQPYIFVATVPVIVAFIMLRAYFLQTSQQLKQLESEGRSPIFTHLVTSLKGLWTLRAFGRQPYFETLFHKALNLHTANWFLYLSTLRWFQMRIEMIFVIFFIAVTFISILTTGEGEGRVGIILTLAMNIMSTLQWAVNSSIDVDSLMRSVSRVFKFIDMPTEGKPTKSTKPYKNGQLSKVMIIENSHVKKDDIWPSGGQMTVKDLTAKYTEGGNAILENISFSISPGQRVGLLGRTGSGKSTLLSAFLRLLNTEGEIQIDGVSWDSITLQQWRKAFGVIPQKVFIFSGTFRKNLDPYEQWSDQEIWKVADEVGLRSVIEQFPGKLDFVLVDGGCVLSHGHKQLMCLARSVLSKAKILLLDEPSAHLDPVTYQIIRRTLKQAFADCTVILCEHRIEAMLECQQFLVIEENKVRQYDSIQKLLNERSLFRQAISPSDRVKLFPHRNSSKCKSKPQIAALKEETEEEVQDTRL

SMILES	% Activation (ΔF508-CFTR [1])	EC50 (ΔF508-CFTR [1])	% Activation (ΔF508-CFTR [2])	EC50 (ΔF508-CFTR [2])
CC(C)c1nn(-c2cccc(N3CCOCC3)c2)c2nc(C(=O)O)cc(-c3cnc(N(C)C)nc3)c12 [compound 88, 4-[2-(dimethylamino)pyrimidin-5-yl]-1-[3-(morpholin-4-yl)phenyl]-3-(propan-2-yl)-1H-pyrazolo[3,4-b]pyridine-6-carboxylic acid]	453.15%	525 nM	288.95%	693 nM
Cc1nn(-c2cccc(N(C)C)c2)c2nc(C(=O)O)cc(-c3cnc(N4CCOCC4)nc3)c12 [compound 90, 1-[3-(dimethylamino)phenyl]-3-methyl-4-[2-(morpholin-4-yl)pyrimidin-5-yl]-1H-pyrazolo[3,4-b]pyridine-6-carboxylic acid]	367.15%	883 nM	169.65%	1040 nM
CN(C)c1ncc(-c2cc(C(=O)O)nc3c2c(C(C)(C)C)nn3C2CCCC2)cn1 [compound 91, 3-tert-butyl-1-cyclopentyl-4-[2-(dimethylamino)pyrimidin-5-yl]-1H-pyrazolo[3,4-b]pyridine-6-carboxylic acid]	176.6%	3340 nM	43.54%	3340 nM
CC(C)(CO)c1nn(-c2ccccc2)c2nc(C(=O)O)cc(-c3ccc(N4CCOCC4)nc3)c12 [compound 92, 3-(1-hydroxy-2-methylpropan-2-yl)-4-[6-(morpholin-4-yl)pyridin-3-yl]-1-phenyl-1H-pyrazolo[3,4-b]pyridine-6-carboxylic acid]	99.81%	> 10000 nM	2.873%	> 10000 nM
CC(C)c1nn(C2CCCCC2)c2nc(C(=O)O)cc(-c3ccc(N(C)C)nc3)c12 [compound 93, 1-cyclohexyl-4-[6-(dimethylamino)pyridin-3-yl]-3-(propan-2-yl)-1H-pyrazolo[3,4-b]pyridine-6-carboxylic acid]	379.57%	491 nM	175.6%	680 nM
Cc1nn(-c2ccn(C)c(=O)c2)c2nc(C(=O)O)cc(-c3ccc(N4CCOCC4)cc3)c12 [compound 94, 3-methyl-1-(1-methyl-2-oxo-1,2-dihydropyridin-4-yl)-4-[4-(morpholin-4-yl)phenyl]-1H-pyrazolo[3,4-b]pyridine-6-carboxylic acid]	119.4%	> 10000 nM	3.061%	> 10000 nM
CC(C)c1nn(C2CCN(CC#N)CC2)c2nc(C(=O)O)cc(-c3ccc(N4CCOCC4)cc3)c12 [compound 95, 1-[1-(cyanomethyl)piperidin-4-yl]-4-[4-(morpholin-4-yl)phenyl]-3-(propan-2-yl)-1H-pyrazolo[3,4-b]pyridine-6-carboxylic acid]	145.4%	3340 nM	16.66%	> 10000 nM
Cc1nn(-c2ccccc2)c2nc(C(=O)O)cc(-c3ccc(NC4CCC4)cc3)c12 [compound 96, 4-[4-(cyclobutylamino)phenyl]-3-methyl-1-phenyl-1H-pyrazolo[3,4-b]pyridine-6-carboxylic acid]	329.75%	1200 nM	141.5%	1530 nM
Cc1nn(-c2ccccc2)c2nc(C(=O)O)cc(-c3ccc(N4CC(F)(F)C4)cc3)c12 [compound 97, 4-[4-(3,3-difluoroazetidin-1-yl)phenyl]-3-methyl-1-phenyl-1H-pyrazolo[3,4-b]pyridine-6-carboxylic acid]	268%	1160 nM	96.51%	1530 nM
Cc1nn(-c2ccccc2)c2nc(C(=O)O)cc(-c3ccc(N4CCN(CC#N)CC4)cc3)c12 [compound 98, 4-{4-[4-(cyanomethyl)piperazin-1-yl]phenyl}-3-methyl-1-phenyl-1H-pyrazolo[3,4-b]pyridine-6-carboxylic acid]	350.65%	834 nM	165.8%	1150 nM
Cc1nn(C2CCCCC2)c2nc(C(=O)O)cc(-c3ccc(N(C)C)nc3)c12 [compound 99, 1-cyclohexyl-4-[6-(dimethylamino)pyridin-3-yl]-3-methyl-1H-pyrazolo[3,4-b]pyridine-6-carboxylic acid]	247.8%	1100 nM	80.69%	1530 nM
CC(C)(C)c1nn(C2CCCC2)c2nc(C(=O)O)cc(-c3cnc(N4CCOCC4)nc3)c12 [compound 100, 3-tert-butyl-1-cyclopentyl-4-[2-(morpholin-4-yl)pyrimidin-5-yl]-1H-pyrazolo[3,4-b]pyridine-6-carboxylic acid]	310%	457 nM	115.7%	981 nM
Cc1nn(-c2cccc(F)c2)c2nc(C(=O)O)cc(-c3ccc(N4CCOCC4)nc3)c12 [compound 101, 1-(3-fluorophenyl)-3-methyl-4[6-(morpholin-4-yl)pyridin-3-yl]-1H-pyrazolo[3,4-b]pyridine-6-carboxylic acid]	331.65%	999 nM	143.75%	1610 nM
Cc1nn(-c2cccc(C(F)(F)F)c2)c2nc(C(=O)O)cc(-c3ccc(N4CCOCC4)nc3)c12 [compound 102, 3-methyl-4-[6-(morpholin-4-yl)pyridin-3-yl]-1-[3-(trifluoromethyl)phenyl]-1H-pyrazolo[3,4-b]pyridine-6-carboxylic acid]	384%	949 nM	153%	1040 nM
CC(C)(C)OC(=O)N1CCCC1c1nn(-c2ccccc2)c2nc(C(=O)O)cc(-c3ccc(N4CCOCC4)nc3)c12 (stereo not shown) [compound 103, 3-[1-(tert-butoxycarbonyl)pyrrolidin-2-yl]-4-[6-(morpholin-4-yl)pyridin-3-yl]-1-phenyl-1H-pyrazolo[3,4-b]pyridine-6-carboxylic acid]	302%	694 nM	115.65%	703 nM
Cc1nn(-c2ccc(F)cc2F)c2nc(C(=O)O)cc(-c3ccc(N4CCOCC4)nc3)c12 [compound 104, 1-(2,4-difluorophenyl)-3-methyl-4-[6-(morpholin-4-yl)pyridin-3-yl]-1H-pyrazolo[3,4-b]pyridine-6-carboxylic acid]	308.55%	1010 nM	130.4%	1240 nM
Cc1nn(-c2ccc(F)cc2F)c2nc(C(=O)O)cc(-c3ccc(N4CCOCC4)cc3)c12 [compound 105, 1-(2,4-difluorophenyl)-3-methyl-4-[4-(morpholin-4-yl)phenyl]-1H-pyrazolo[3,4-b]pyridine-6-carboxylic acid]	383.25%	879 nM	179.05%	949 nM
Cc1nn(C2CCCC2)c2nc(C(=O)O)cc(-c3ccc(N4CCOCC4)nc3)c12 [compound 106, 1-cyclopentyl-3-methyl-4[6-(morpholin-4-yl)pyridin-3-yl]-1H-pyrazolo[3,4-b]pyridine-6-carboxylic acid]	237.45%	2620 nM	73%	3340 nM
Cc1nn(-c2ccccc2)c2nc(C(=O)O)cc(-c3ccc(N4CCN(CCO)CC4)cc3)c12 [compound 107]	164.5%	3340 nM	20.98%	> 10000 nM
